Columns and labels:
Sprague-Dawley rats [1] = experiment: Changes in relevant physiological variables during treatment after severe CHI in rats; assay type: in vivo, rat; conditions: median average change over entire treatment period, % change of initial value; 0.5 mg/kg/min 10 min then 0.1 mg/kg/min 50 min, started 20 min after severe CHI; n = 10
From the text: (§1) A clinically relevant rat model for traumatic brain injury was used to test the compounds according to the invention. This model mimics several clinical features of traumatic brain injury, such as increased ICP, decreased cerebral perfusion pressure, morphologic alterations including diffuse axonal injury, neuronal necrosis and contusion, impairment of autoregulation of cerebral blood flow and reduction of brain oxygenation and was applied for screening drugs with ICP-lowering effects. Trauma was induced in intubated, isoflurane anesthetized (1.5% isoflurane in a mixture of 30% O2 and 70% N2O) Sprague-Dawley rats (380-400 g) stereotaxically positioned on a table mounted on 4 springs. A 400 g steel cylinder, protected with a 9 mm diameter silicon disc, was dropped on the unprotected skull from a height of either 70 cm or 50 cm (respectively ‘severe’ and ‘moderate’ head injury). The impact area was centered between bregma and lamda. ICP was recorded using a Codman microsensor probe inserted in the parietal cortex. In both severe and moderate head injuries the ICP increased immediately after trauma and remained elevated for several days. The severe head injury mode was used for the evaluation of pharmacological effects immediately after trauma (screening procedure). When survival and recovery from anesthesia was envisaged, the moderate head injury mode was applied. In pharmacological studies, animals with a pathological ICP between 12.5 and 35 mm Hg were included. The changes in ICP, mean arterial blood pressure (MABP) and cerebral perfusion pressure CPP (=[…]) were expressed as percentage of the initial value at onset of the treatment. Screening procedure: On a weekly base, 4 treated groups of 3 rats were compared with 3 saline treated animals. Since conventional statistical methods require a larger amount of animals, a sequential procedure was used. Sequential methods operate in different stages. At each stage, a group of animals was selected as homogeneous as possible. Animals were randomly allocated to either drugs or saline. The procedure allowed to make the decision of rejecting the drug, accepting the drug as active or to continue with a new group of animals in a next stage. Given the biological relevant level of activity that must be detected, the expected fraction of false positive and negative results was known and fixed. A sequential two-sample grouped rank test was used. […] Despite the variability in the individual data, the procedure consistently accepted reference treatments such as mannitol as active, while controls were rejected.
Treatment was started at 20 min after severe head injury and involved administering a dose of 0.5 mg/kg/min during 10 minutes, followed by 0.1 mg/kg/min during 50 min.

rat brain = experiment: Near-infrared spectroscopy (NIRS) of the rat brain: brain hemoglobin concentration and oxygenation after moderate head injury; assay type: in vivo; conditions: 24 h after moderate head injury; i.v. 0.5 mg/kg.min 10 min then 0.1 mg/kg.min 45 min
From the text: Near-infrared spectroscopy (NIRS) of the rat brain ‘in vivo’ allows to quantify non-invasively saturation of brain haemoglobin with oxygen (HbSat) and total brain haemoglobin concentration ([HbTot]). The latter is a measure for cerebral blood volume (CBV). Changes in the redox state of the mitochondrial enzyme cytochrome oxidase (CytOx), an indicator for tissue oxygenation, can also be monitored.
HbSat is not affected by compound 1 and the racemate (Comp. 1 and Comp. 2).

non-traumatised rats = experiment: ICP, MABP and CPP in anaesthetised non-traumatised rats; assay type: in vivo, rat; conditions: i.v. 0.5 mg/kg/min during 10 minutes, followed by 0.1 mg/kg/min during 50 min
Procedure: The effect of Compound 2, Compound 1 and Racemate (comp. 1 and comp. 2) on ICP, MABP and CPP was tested in anaesthetised non-traumatised rats. The compounds were administered i.v. and the same dose was given as in traumatized rats (0.5 mg/kg/min during 10 minutes, followed by 0.1 mg/kg/min during 50 min).

Sprague-Dawley rats [2] = experiment: Continuous infusion of 0.1 mg/kg.min in the rat CHI model; assay type: in vivo
From the text: as §1
The significant effect of compound 2 on MABP is much less pronounced when the compound is given at a continuous infusion of 0.1 mg/kg.min. […]

Sprague-Dawley rats [3] = experiment: Influence of anaesthesia on effects on ICP and MABP 24 h after moderate trauma; assay type: in vivo, rat; conditions: i.v. infusion 0.1 mg/kg.min 30 min, medians, n=6
From the text: as §1
The effects of treatment with Compound 2 (i.v. infusion at a dose of 0.1 mg/kg.min during 30 min) at 24 h after moderate trauma were studied using different anesthetics (isoflurane, chloralhydrate, pentobarbital). […]

Sprague-Dawley rats [4] = experiment: Closed Head Injury (CHI) model, screening procedure (severe head injury); assay type: in vivo, rat
From the text: as §1

traumatized rats = experiment: Repeated application on elevated ICP in traumatized rats; assay type: in vivo, rat; conditions: mannitol i.v. 0.125 g/kg/min, same time windows; FIG. 3
Procedure: Compound 1 was given 2 times with intermittent periods of 20 min at a i.v. dose of 1 mg/kg/min during 10 min, starting a first time 20 min after induction of severe head injury.
Mannitol was given i.v. in the same time windows as Compound 1 at a dose of 0.125 g/kg/min. The control animals received the solvent (containing 10% HP-β-CD, pH 4) only.
This effect is amplified after termination of each, infusion period.

[5] = chloralhydrate 400 mg/kg i.p. anesthesia
[6] = pentobarbital 60 mg/kg i.p. anesthesia

## Cc1nc2ccccn2c(=O)c1CCN1CCC(C2(C)c3ccccc3CCn3c2nc2ccccc23)CC1 (stereo not drawn) (hydrate or solvate) [Compound 6]
other
  melting point: 133.9 °C

## Cc1nc2n(C)c3ccccc3n2c(=O)c1CCN1CCC(C2c3ccccc3CCn3c2nc2ccccc23)CC1Cc1ccccc1 (racemic) [Racemate (comp. 1 and comp. 2), pyrimido[1,2-α]benzimidazol-4(10H)-one, 3-[2-[4-(11,12-dihydro-6H-benzimidazo[2,1-b][3]benzazepin-6-yl)-2-(phenylmethyl)-1-piperidinyl]ethyl]-2,10-dimethyl (E)-2-butenedioate (2:3) hydrate (1:1)]
Sprague-Dawley rats [1]
  CPP (%): 7.5%
  ETCO2 (%): 2.4%
  Heart rate(%): 5.6%
  ICP (%): −19.1%
  MABP (%): 0.6%
  Resp. rate(%): 9.6%
Rat brain
  effect on saturation of brain haemoglobin with oxygen (HbSat): not affected
  effect on total brain haemoglobin concentration [HbTot]: do not have a significant effect
non-traumatised rats
  effect on ICP, MABP and CPP: comparable with those obtained in the traumatized animals

## Cc1nc2n(C)c3ccccc3n2c(=O)c1CCN1CCC(C2c3ccccc3CCn3c2nc2ccccc23)CC1Cc1ccccc1 (single isomer, unassigned) [Compound 2, (A)[(2α,4β)(A)] 3-[2-(4-(11,12-dihydro-6H-benzimidazo [2,1-b][3]benzazepin-6-yl)-2-(phenylmethyl)-1-piperidinyl]ethyl]-2,10-dimethyl-pyrimido[1,2-a]benzimidazol-4(10H)-one]
Sprague-Dawley rats [1]
  CPP (%): 24.2%
  ETCO2 (%): −4.4%
  Heart rate(%): −9.6%
  ICP (%): −15.3%
  MABP (%): 18.8%
  Resp. rate(%): 6.6%
Sprague-Dawley rats [2]
  maximal reduction of ICP versus infusion preceded by loading dose of 5 mg/kg over 10 min: comparable
  time required to obtain maximal reduction of ICP (median): 30 min
Sprague-Dawley rats [2]; larger increases not observed
  increases in MABP observed: ≤ 20%
Sprague-Dawley rats [2]; n=6
  median MABP increase at the end of the infusion: 9%
Rat brain
  effect on saturation of brain haemoglobin with oxygen (HbSat): small but statistically significant reduction
  effect on total brain haemoglobin concentration [HbTot]: do not have a significant effect
Sprague-Dawley rats [3]; [5]
  ICP decreases to % of initial value: 75 % of initial value
  MABP increases to % of initial value: 110 % of initial value
Sprague-Dawley rats [3]; [6]
  ICP decreases to % of initial value: 64 % of initial value
  MABP increase up to % of initial value at the end of the infusion: 141 % of initial value
non-traumatised rats
  effect on ICP, MABP and CPP: comparable with those obtained in the traumatized animals

## Cc1nc2sccn2c(=O)c1CCN1CCC(=C2c3ccccc3CCn3c2nc2ccccc23)CC1 [Compound 5, 6-[2-[4-(11,12-dihydro-6H-benzimidazo [2,1-b][3]benzazepin-6-ylidene)-1-piperidinyl]ethyl]-7-methyl-5H-thiazolo [3,2-a]pyrimidin-5-one]
other
  melting point: 224.9 °C

## Cc1nc2sccn2c(=O)c1CCN1CCC(C2c3ccccc3C(c3ccccc3)Cn3c2nc2ccccc23)CC1Cc1ccccc1 (stereo not drawn) [Compound 7]
other
  melting point: 213.2 °C

## Cc1nc2sccn2c(=O)c1CCN1CCC(=C2c3ccccc3C=Cn3c2nc2ccccc23)CC1 [Compound 8, 6-[2-[4-(6H-benzimidazo[2,1-b][3]benzazepin-6-ylidene)-1-piperidinyl]ethyl]-7-methyl-5H-thiazolo[3,2-a]pyrimidin-5-one]
other
  melting point: 178.8 °C

## OC[C@@H](O)[C@@H](O)[C@H](O)[C@H](O)CO [Mannitol]
Sprague-Dawley rats [4]; i.v. mannitol 3 g over 45 min
  mean reduction of ICP: about 20%
Sprague-Dawley rats [4]; severe CHI rats, mannitol infusion of 67 mg/kg/min for 45 min, 5 separate tests
  Decision (based upon sequential statistical evaluation): active
Sprague-Dawley rats [4]; severe CHI rats, mannitol infusion of 67 mg/kg/min for 45 min, 5 separate tests, listed as Mannitol^1, 67 mg/kg
  Delta %: average change of the relative ICP from baseline over the treatment period: −21.7%
Sprague-Dawley rats [4]; severe CHI rats, mannitol infusion of 67 mg/kg/min for 45 min, 5 separate tests, listed as Mannitol^2, 67 mg/kg
  Delta %: average change of the relative ICP from baseline over the treatment period: −22.1%
Sprague-Dawley rats [4]; severe CHI rats, mannitol infusion of 67 mg/kg/min for 45 min, 5 separate tests, listed as Mannitol^3, 67 mg/kg
  Delta %: average change of the relative ICP from baseline over the treatment period: −13.0%
Sprague-Dawley rats [4]; severe CHI rats, mannitol infusion of 67 mg/kg/min for 45 min, 5 separate tests, listed as Mannitol^4, 67 mg/kg
  Delta %: average change of the relative ICP from baseline over the treatment period: −19.3%
Sprague-Dawley rats [4]; severe CHI rats, mannitol infusion of 67 mg/kg/min for 45 min, 5 separate tests, listed as Mannitol^5, 67 mg/kg
  Delta %: average change of the relative ICP from baseline over the treatment period: −19.9%
Traumatized rats
  effect on ICP during infusion: lowering of ICP
  effect on blood pressure: increase in blood pressure during each infusion followed by a decrease in blood pressure after termination of each treatment

From patent publication US7476662B2, “Substituted tetracyclic imidazole derivatives, processes for their preparation, pharmaceutical compositions comprising them and their use as a medicine” (Janssen Pharmaceutica N.V., priority 2001, dated 2009)
